Results on six molecules are retold here after patent US11976069B2, “Inhibitors of histone deacetylase useful for the treatment or prevention of HIV infection” (Merck Sharp & Dohme LLC, priority 2019, dated 2024).

Read-outs that look alike come from different tables or passages of the source.

Holding throughout (format): biochemical
In one assay the target is T1, HDAC1 (Homo sapiens, UniProt Q13547).
T1 construct: FLAG (C)
Put plainly: HDAC1 inhibition, modified Fluor-de-Lys assay. The following applies: 3 h pre-incubation, 0.3 nM enzyme, 20 μM substrate BML-KI104; read-out: HDAC-1 IC50. As for the experimental part:
(§1) Human HDAC Enzyme Inhibitor FLUOR-DE-LYS Assay Materials
(§2) Recombinant human HDAC1, HDAC2, and HDAC3/SMRT heterodimer were prepared by Merck Research Laboratories. […] The eluted protein was then passed over an anti-HDAC1 immunoaffinity column to remove any complexes containing HDAC1. […]
(§3) The histone deacetylase activities of HDAC1, HDAC2, HDAC3, HDAC6, and HDAC8 were measured in modified Fluor-de-Lys assays in 384-well format. In this assay, HDAC enzymes are initially incubated with an ε-acetyl (or -trifluoroacetyl)-L-lysine-containing substrate with a C-terminal amide having aminomethylcoumarin as the amine component. HDACs cleave the ε-acetyl group, rendering the resulting product susceptible to AMC cleavage by trypsin. The released AMC is then detected by its fluorescence.
(§4) The HDAC 1, 2 assays employed buffer A, which contained 20 mM HEPES, pH 8.0, 1 mM MgCl2, 137 mM NaCl, 2.7 mM KCl, 0.05% BSA. The HDAC3/SMRT assay employed buffer B, consisting of 20 mM HEPES, pH 8.0, 1 mM MgCl2, 50 mM NaCl, 2.7 mM KCl, 0.05% BSA, 0.005% Tween 20, and 10 μM IP4. The HDAC6 assay employed buffer C, consisting of 20 mM HEPES, pH 8.0, 1 mM MgCl2, 137 mM NaCl, 2.7 mM KCl, 0.5 mM TCEP (Calbiochem) and 0.05% BSA. The HDAC8 assay employed buffer D, consisting of 20 mM HEPES, pH 8.0, 1 mM MgCl2, 100 mM NaCl, 20 mM KCl, 0.1% n-octyl-β-D-glucoside (Anatrace, Maumee, Ohio) and 0.05% BSA. All steps were performed at room temperature (23° C.). The assay was performed by pre-incubating serial dilutions of test compounds with the target HDAC prior to initiation with substrate. Each compound was titrated in a 10-point dose response, using a 1:3 fold dilution scheme, with 0.15 ul of solution added by ECHO555 to the plate, followed by the addition of 20 μl of the appropriate HDAC isoform diluted in appropriate assay buffer. […] Final conditions used for each assay were: 1. HDAC 1, 0.3 nM total enzyme, 20 μM substrate BML-KI104; 2. HDAC 2, 1.5 nM total enzyme, 40 μM substrate BML-KI104; 3. HDAC 3/SMRT, 0.3 nM total enzyme, 20 μM substrate BML-KI104; 4. HDAC 6, 1.3 nM total enzyme, 2.5 μM substrate BML-KI104; 5. HDAC 8, 1.3 nM total enzyme, 200 μM substrate BML-KI178; the final high dose of test compound was 30 μM. For potent compounds, 900 nM was used as the final high dose. The reactions were stopped and developed by addition of 30 ul of HDAC developer solution containing a saturating level of HDAC inhibitor as follows: 1.

A further assay has as its target T2, HDAC2 (Homo sapiens, UniProt Q92769).
T2 construct: Full length human HDAC2-FLAG was expressed in baculovirus infected Sf9 cells; FLAG (C); host or cells: baculovirus infected Sf9 cells
Put plainly: HDAC2 inhibition, modified Fluor-de-Lys assay. To be noted: 3 h pre-incubation, […] enzyme, 40 μM substrate BML-KI104; read-out: HDAC-2 IC50. As for the experimental part: as §1, §2, §3, §4

A further assay has as its target T3, HDAC3/SMRT heterodimer (Homo sapiens, UniProt O15379).
T3 construct: FLAG (C)
Put plainly: HDAC3/SMRT inhibition, modified Fluor-de-Lys assay. The following applies: 3 h pre-incubation, 0.3 nM enzyme, 20 μM substrate BML-KI104, read-out: HDAC-3 IC50. As for the experimental part:
as §1, §2, §3, §4

A further assay has as its target T4, HDAC8 (Homo sapiens, UniProt Q9BY41).
T4 construct: purchased Enzo Life Sciences (Farmingdale, N.Y.) BMIL-SE145-0100
T4 sequence (Q9BY41 1-377): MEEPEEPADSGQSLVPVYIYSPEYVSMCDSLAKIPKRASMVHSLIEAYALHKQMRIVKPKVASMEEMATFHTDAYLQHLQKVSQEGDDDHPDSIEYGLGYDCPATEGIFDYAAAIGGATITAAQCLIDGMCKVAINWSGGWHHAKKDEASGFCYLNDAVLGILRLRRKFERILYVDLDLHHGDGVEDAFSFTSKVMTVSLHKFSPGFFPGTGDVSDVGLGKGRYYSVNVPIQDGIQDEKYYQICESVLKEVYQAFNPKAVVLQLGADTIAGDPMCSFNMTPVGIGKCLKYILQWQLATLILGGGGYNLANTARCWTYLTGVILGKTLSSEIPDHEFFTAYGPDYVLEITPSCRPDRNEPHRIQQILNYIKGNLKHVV
Put plainly: HDAC8 inhibition, modified Fluor-de-Lys assay. The following applies: 3 h pre-incubation, 200 μM substrate BML-KI178, read-out: HDAC-8 IC50.
Excerpt: as §1
Recombinant human HDAC8 (catalog number BMIL-SE145-0100) and HDAC10 (catalog number BML-SE559-0050) enzymes, HIDAC substrates BML-KI104 and BML-K1178, and HLDAC developer solutions BMIL-KI105 and BML-K1176 were purchased from Enzo Life Sciences (Farmingdale, N.Y.). Recombinant human HDAC5 and HDAC11 were purchased from BPS Bioscience (San Diego, Calif.)(catalog numbers 50045 and 50021). Substrate Boc-Lys(TFA)-AMC was obtained from Bachem (Bupendorf, Switzerland) (catalog number 1-1985). HDAC inhibitor suberoylanilide hydroxamic acid (SAHA) was obtained from Indofine (Hillsborough Township, N.J.) and trichostatin A (TSA) was obtained from Sigma-Aldrich (St. Louis, Mo.). […] HEPES pH 8.0 was obtained from Boston BioProducts (Ashland, Mass.), Tween-20 from Fisher Scientific (Hampton, N.H.) (catalog number BP337), TCEP from Calbiochem and 7.5% bovine serum albumin (BSA) from Life Technologies (Carlsbad, Calif.) (catalog number 15260037). 384-well, black assay plates were obtained from Corning (Corning, N.Y.) (catalog number 3575).
as §3, §4

T1 sequence (Q13547 whole entry): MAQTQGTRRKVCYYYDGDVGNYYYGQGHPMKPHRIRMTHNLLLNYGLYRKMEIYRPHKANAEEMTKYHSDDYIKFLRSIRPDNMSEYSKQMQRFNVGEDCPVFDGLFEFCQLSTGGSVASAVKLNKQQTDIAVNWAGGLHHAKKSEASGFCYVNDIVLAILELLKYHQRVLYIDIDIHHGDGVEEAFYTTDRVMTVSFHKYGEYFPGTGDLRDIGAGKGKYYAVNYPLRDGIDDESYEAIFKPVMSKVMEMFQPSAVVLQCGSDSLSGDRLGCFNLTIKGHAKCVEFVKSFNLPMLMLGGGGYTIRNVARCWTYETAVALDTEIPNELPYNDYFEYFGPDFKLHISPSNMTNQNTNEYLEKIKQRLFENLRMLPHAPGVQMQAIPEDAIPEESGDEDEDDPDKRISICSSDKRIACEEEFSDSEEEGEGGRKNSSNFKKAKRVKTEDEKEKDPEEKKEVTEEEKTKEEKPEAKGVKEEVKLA
T2 sequence (Q92769 whole entry): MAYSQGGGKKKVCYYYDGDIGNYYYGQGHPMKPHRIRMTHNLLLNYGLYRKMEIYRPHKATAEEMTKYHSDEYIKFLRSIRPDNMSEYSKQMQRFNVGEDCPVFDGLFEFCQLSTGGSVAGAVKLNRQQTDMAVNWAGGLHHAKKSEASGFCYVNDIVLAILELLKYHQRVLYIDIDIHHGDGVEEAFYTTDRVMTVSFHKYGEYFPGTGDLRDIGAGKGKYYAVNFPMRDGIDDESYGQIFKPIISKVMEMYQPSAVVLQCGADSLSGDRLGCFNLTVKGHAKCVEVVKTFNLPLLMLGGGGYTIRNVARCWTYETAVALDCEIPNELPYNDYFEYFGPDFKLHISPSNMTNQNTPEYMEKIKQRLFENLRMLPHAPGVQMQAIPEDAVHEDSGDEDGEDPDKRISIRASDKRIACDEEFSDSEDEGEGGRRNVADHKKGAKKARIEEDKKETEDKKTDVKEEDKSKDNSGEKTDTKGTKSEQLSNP
T3 sequence (O15379 whole entry): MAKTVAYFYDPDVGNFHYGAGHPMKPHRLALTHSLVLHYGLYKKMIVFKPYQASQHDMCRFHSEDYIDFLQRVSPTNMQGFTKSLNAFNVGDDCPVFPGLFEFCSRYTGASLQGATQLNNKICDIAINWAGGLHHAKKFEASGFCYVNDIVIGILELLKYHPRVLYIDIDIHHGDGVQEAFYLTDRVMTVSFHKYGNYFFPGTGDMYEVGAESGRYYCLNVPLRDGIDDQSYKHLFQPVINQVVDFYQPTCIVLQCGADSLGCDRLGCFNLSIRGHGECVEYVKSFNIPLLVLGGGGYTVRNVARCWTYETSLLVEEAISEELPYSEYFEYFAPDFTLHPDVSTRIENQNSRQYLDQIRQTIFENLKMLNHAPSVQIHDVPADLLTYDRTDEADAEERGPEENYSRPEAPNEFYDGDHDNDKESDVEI
T3 sequence (Q9Y618 1-899 partner limits assumed): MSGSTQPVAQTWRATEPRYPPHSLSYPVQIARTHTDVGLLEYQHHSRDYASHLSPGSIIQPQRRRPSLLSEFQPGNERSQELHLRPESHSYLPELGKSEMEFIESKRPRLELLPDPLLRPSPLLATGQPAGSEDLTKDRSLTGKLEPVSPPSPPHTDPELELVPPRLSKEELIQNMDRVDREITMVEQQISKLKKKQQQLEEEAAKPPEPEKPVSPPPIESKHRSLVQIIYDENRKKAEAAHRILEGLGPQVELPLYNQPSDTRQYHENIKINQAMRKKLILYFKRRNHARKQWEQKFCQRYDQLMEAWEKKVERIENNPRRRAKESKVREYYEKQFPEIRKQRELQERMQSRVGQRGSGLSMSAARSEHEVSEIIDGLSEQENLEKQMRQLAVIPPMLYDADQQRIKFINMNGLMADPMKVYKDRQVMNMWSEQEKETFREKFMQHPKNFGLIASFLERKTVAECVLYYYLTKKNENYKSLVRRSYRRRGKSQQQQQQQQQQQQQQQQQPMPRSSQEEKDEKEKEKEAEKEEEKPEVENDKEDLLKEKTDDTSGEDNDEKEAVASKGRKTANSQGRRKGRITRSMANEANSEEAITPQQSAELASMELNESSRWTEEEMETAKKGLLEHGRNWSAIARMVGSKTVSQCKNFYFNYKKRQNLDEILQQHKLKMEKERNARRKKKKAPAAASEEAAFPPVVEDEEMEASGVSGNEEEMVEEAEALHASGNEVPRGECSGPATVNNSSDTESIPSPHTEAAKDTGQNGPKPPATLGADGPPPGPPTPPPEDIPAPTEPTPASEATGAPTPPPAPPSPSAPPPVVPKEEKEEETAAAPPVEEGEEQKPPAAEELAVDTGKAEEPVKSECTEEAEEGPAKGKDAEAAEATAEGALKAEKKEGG

As usually defined, the IC50 is the concentration at which inhibition is half-maximal. Regarding `CCC(=O)CCCCC[C@@H]1NC(=O)[C@H]2CC23CCN(CCCCCCCCn2ccc4cc(c(OC)cc4c2=O)-c2cnc1[nH]2)CC3` [Compound 5, (1^1S,4S)-6^7-methoxy-4-(6-oxooctyl)-6^1,6^2-dihydro-5^1H-3-aza-6(6,2)-isoquinolina-15(4,1)-piperidina-5(2,5)-imidazola-1(1,2)-cyclopropanapentadecaphane-6^1,2-dione], the IC50 on HDAC1 was 0.11 nM; on HDAC2, 0.31 nM; on HDAC3/SMRT heterodimer, 0.13 nM.

For `CCC(=O)CCCCCC1NC(=O)C2CC2N2CCC(CCCCCn3c(=O)ccc4cc(ccc43)-c3cnc1o3)CC2` [Compound 7, (11S,4S)-4-(6-oxooctyl)-61,62-dihydro-3-aza-5(2,5)-oxazola-6(6,1)-quinolina-12(4,1)-piperidina-1(1,2)-cyclopropanadodecaphane-62,2-dione], the IC50 is 16 nM at HDAC1, 260 nM at HDAC2, 57 nM on HDAC3/SMRT heterodimer and greater than 900 nM at HDAC8 ([…] enzyme).

Regarding `CCC(=O)CCCCC[C@@H]1NC(=O)[C@H]2CC23CCN(CCCOCCCn2ccc4cc(ccc4c2=O)-c2cnc1[nH]2)CC3` [Compound 12, (3S,6S)-6-(6-oxooctyl)-22-oxa-5,8,18,26,33-pentaazahexacyclo[24.2.2.1˜7,10˜0.1˜11,15˜0.1˜14,18˜0.0˜1,3˜]tritriaconta-7,9,11(32),12,14,16-hexaene-4,31-dione], the IC50 worked out at 0.33 nM on HDAC1, 8.5 nM at HDAC2, 0.32 nM on HDAC3/SMRT heterodimer and 808 nM at HDAC8 ([…] enzyme).

As for `CCC(=O)CCCCC[C@H](NC(=O)[C@H]1CC12CCN(CC)CC2)c1[nH]c2nc1C(=O)NCCC/C=C\c1cccc-2c1` [Compound 14, (1S)-6-ethyl-N-{(1S)-7-oxo-1-[(11Z)-6-oxo-3,7,18-triazatricyclo[11.3.1.1~2,5~]octadeca-1(17),2(18),4,11,13,15-hexaen-4-yl]nonyl}-6-azaspiro[2.5]octane-1-carboxamide], the IC50 is 133 nM on HDAC1, 572 nM at HDAC2, 113 nM at HDAC3/SMRT heterodimer and greater than 900 nM on HDAC8 (1.3 nM enzyme).

On to `CCC(=O)CCCCC[C@H](NC(=O)[C@H]1CC12CCN(CC)CC2)c1[nH]c2nc1C(=O)NCCC/C=C/c1cccc-2c1` [Compound 15, (1S)-6-ethyl-N-{(1S)-7-oxo-1-[(11E)-6-oxo-3,7,18-triazatricyclo[11.3.1.1~2,5~]octadeca-1(17),2(18),4,11,13,15-hexaen-4-yl]nonyl}-6-azaspiro[2.5]octane-1-carboxamide], for which the IC50 at HDAC1 was 21 nM; on HDAC2 it was 223 nM; on HDAC3/SMRT heterodimer it was 18 nM; at HDAC8 (1.3 nM enzyme), greater than 900 nM.

Regarding “(11S,4S)-4-(6-oxooctyl)-61,62-dihydro-3-aza-5(2,5)-oxazola-6(6,1)-quinolina-12(4,1)-piperidina-1(1,2)-cyclopropanadodecaphane-62,2-dione [Compound 8]”, the IC50 on HDAC1 is 42 nM; at HDAC2 it was 287 nM; at HDAC3/SMRT heterodimer, 130 nM; on HDAC8 ([…] enzyme), greater than 900 nM.
